Values joined by “and” are separate entries in the source; they are usually repeats but may differ in a detail not shown here. Identical values can stand only once. “Also recorded” adds a separate entry of the source.
What was measured:
[1] = system: NFPA (tumoral pituitary cells); experiment: free cytosolic calcium kinetics ([Ca^2+]i), NFPA cells; format: cell-based, human
Protocol: (§1) Pituitary adenoma specimens were dispersed into single cells by enzymatic and mechanical disruption and cultured onto tissue culture plates in serum containing medium, as previously described. Briefly, pituitary samples were resected by endoscopic transsphenoidal surgery and transferred to sterile cold (4°C) culture medium (S-MEM, Gibco, Madrid, Spain) supplemented with 0.1% BSA, 0.01% L-glutamine, 1% antibiotic-antimycotic solution, and 2.5% HEPES. Samples were minced under sterile conditions into 1–2 mm^3 pieces. Some pieces were stored at −80°C for posterior RNA isolation and, when possible, the remaining tissue samples were washed and incubated in 30 mL S-MEM medium supplemented 0.3% trypsin (Beckson, Dickinson and Company, Sparks, MD, USA) in a spinner flask (Bellco Glass, Vineland, NJ, USA) for 2 h of gentle shaking at 37°C and then, incubation was continued for another 5 min in presence of 1 mg of DNAse I (Roche, Mannheim, Germany). Dispersed cells were decanted by centrifugation and then, by repeated aspiration into a smoothtipped glass Pasteur pipette. […]
(§2) As previously reported, changes in [Ca^2+]i in single cells were measured using fura-2AM (50,000 cells/coverslip; Molecular Probes, Eugene, OR)[23][30]. […] Cells were examined for changes in [Ca^2+]i after the appropriate treatment (native ghrelin, In1-19 or In1-40) using a 40× objective with Immersion Oil Type NF (Nikon, Tokyo, Japan) while exposed to alternating 340–380 nm light beams, and the intensity of light emission at 505 nm was measured every 5 seconds using MetaFluor Software (Imaging Corp., West Chester, PA, USA). […] Changes in [Ca^2+]i in CHO-K1 cell line expressing recombinant GHSR1a or GHSR1b receptor were measured using Calcium 4 Explorer Kit (Molecular Devices, Sunnyvale, CA, USA). […] Fluorescent signals were then monitored using the FLIPR Tetra (Molecular Devices, Sunnyvale, CA, USA) during which cells were stimulated with compounds. Dose-response curves were analyzed using GraphPad Prism v5.04 (La Jolla, CA, USA).

[2] = system: PRL-omas (tumoral pituitary cells); experiment: free cytosolic calcium kinetics ([Ca^2+]i), PRL-oma cells; format: cell-based, human; settings: fura-2AM
Protocol: Pituitary adenoma specimens were dispersed into single cells by enzymatic and mechanical disruption and cultured onto tissue culture plates in serum containing medium, as previously described. Briefly, pituitary samples were resected by endoscopic transsphenoidal surgery and transferred to sterile cold (4°C) culture medium (S-MEM, Gibco, Madrid, Spain) supplemented with 0.1% BSA, 0.01% L-glutamine, 1% antibiotic-antimycotic solution, and 2.5% HEPES. Samples were minced under sterile conditions into 1–2 mm^3 pieces. […]
as §2, with “Dose-response curves were analyzed using GraphPad Prism v5.04 (La Jolla, CA, USA).” left out

p-ERK1/2 = experiment: ERK1/2 phosphorylation by western blot in GH-omas; format: cell-based, human; settings: 100 nM, 8 minutes, p-ERK1/2/total ERK1/2 vs vehicle (100%), n = 4
Protocol: as §1, with “pipette. Cells suspensions were washed once in 4.5 g/L glucose containing DMEM medium (Gibco, Madrid, Spain) supplemented with 0.1% BSA, 0.01% L-glutamine, 1% antibiotic-antimycotic solution, and 2.5% HEPES.” for “pipette.”

NFPAs = experiment: cell viability of NFPA primary cultures, peptide treatment; format: cell-based, human; settings: 100 nM, alamar-blue, n = 3–15
Protocol: as §1
As previously reported, cell viability was estimated using alamar-blue reagent (10,000 cells/well-plate; Biosource International, Camarillo, CA, USA)[30][50][52]. […] Reduction of alamar-blue reagent was quantified exciting at 560 nm and reading at 590 nm using the FlexStation III system (Molecular Devices, Sunnyvale, CA, USA). […]

AtT-20 cell line = experiment: cell viability of AtT-20 cell line; format: cell-based, mouse; settings: alamar-blue, 3–5 independent experiments, IGF-1 and Paclitaxel as controls
Protocol: The mouse corticotroph pituitary derived cell line AtT-20/D16v-F2 (ATCC® CRL-1795) was cultured and maintained in Dulbecco's Modified Eagle's Medium (DMEM) complemented with 10% FBS, 100 U/ml penicillin/streptomycin, 0.024 M of 2-(4(2-hydroxyethyl)-1-piperazine)-ethane sulfonic acid (HEPES), and maintained at 37°C and 5% CO2, under sterile conditions. CHO-K1 cell line(ATCC® CCL-61) expressing recombinant human GHSR1a (GenBank accession number U60179) or GHSR1b (GenBank accession number U60181) were cultured and maintained in Ham's F12 media (Corning #10-080-CV) supplemented with 10% FBS, 2 mM L-Glutamine and 0.4 mg/mL Geneticin.
As previously reported, cell viability was estimated using alamar-blue reagent (10,000 cells/well-plate; Biosource International, Camarillo, CA, USA)[30][50][52]. Briefly, cells were serum-starved for 12–16 h before the measurements and treated with serum-free medium containing 10% alamar-blue for 3 h. Reduction of alamar-blue reagent was quantified exciting at 560 nm and reading at 590 nm using the FlexStation III system (Molecular Devices, Sunnyvale, CA, USA). Subsequently, media was replaced by serum-containing alamar-blue free medium and incubated for additional 24–72 h, measuring the alamar-blue reduction every 24 h. […]

CCCCCCCC(=O)OC[C@H](NC(=O)[C@H](CO)NC(=O)CN)C(=O)N[C@@H](Cc1ccccc1)C(=O)N[C@@H](CC(C)C)C(=O)N[C@@H](CO)C(=O)N1CCC[C@H]1C(=O)N[C@@H](CCC(=O)O)C(=O)N[C@@H](Cc1c[nH]cn1)C(=O)N[C@@H](CCC(N)=O)C(=O)N[C@@H](CCCNC(=N)N)C(=O)N[C@H](C(=O)N[C@@H](CCC(N)=O)C(=O)N[C@@H](CCC(N)=O)C(=O)N[C@@H](CCCNC(=N)N)C(=O)N[C@@H](CCCCN)C(=O)N[C@@H](CCC(=O)O)C(=O)N[C@@H](CO)C(=O)N[C@@H](CCCCN)C(=O)N[C@@H](CCCCN)C(=O)N1CCC[C@H]1C(=O)N1CCC[C@H]1C(=O)N[C@@H](C)C(=O)N[C@@H](CCCCN)C(=O)N[C@@H](CC(C)C)C(=O)N[C@@H](CCC(N)=O)C(=O)N1CCC[C@H]1C(=O)N[C@@H](CCCNC(=N)N)C(=O)O)C(C)C [AG]
% cell resp. ([1]; NFPA, proportion of responsive cells, fura-2AM single-cell imaging): 29% and 29.4% | # samples ([1]; NFPA, responsive/tested samples, fura-2AM, 408 / 367 / 29 cells analyzed for AG / In1-19 / In1-40, peptides 100 nM (abstract)): 9/15 | [Ca^2+]i response (in words) ([1]; NFPAs, fura-2AM): a subset of NFPA cells is responsive | [Ca^2+]i response (in words) [2]: only a low proportion of these pituitary adenoma cells altered their [Ca^2+]i | # samples ([2]; responsive/tested samples, 217 / 160 / 88 cells analyzed for AG / In1-19 / In1-40, peptides 100 nM (abstract)): 2/6 | p-ERK1/2 levels (p-ERK1/2): clear increase; also recorded: increased both, p-ERK1/2 as well as p-Akt, levels | cell viability (NFPAs; 24 h): reaching significant levels | cell viability (NFPAs; time not specified in text (24-, 48- and/or 72-h)): modest but consistent increments in cell viability; also recorded: increased NFPA cells viability | cell viability (AtT-20 cell line): did not alter cell viability

From PMC4649711, “In1-ghrelin splicing variant is overexpressed in pituitary adenomas and increases their aggressive features” (Scientific Reports, 2015)
